Results as given in US8361968B2 (Takeda Pharmaceutical Company Limited, priority 2002, dated 2013).
Numbered stars: 1 amine (or outer) side, 2 acyl side, 3 side chain; on linkers, the order of the positions; unused ones are H or OH. Square brackets hold non-standard residues; d marks the D form. Peptide text beside a SMILES is read from it. * marks the point of attachment. Propanoyl(3-indol-3-yl) = O=C(CCc1c[nH]c2ccccc12)*; X1 = O=C([C@H](Cc1ccc2ccccc2n1)N[*:1])[*:2]; Diphenylacetyl = O=C(C(c1ccccc1)c1ccccc1)*; Arg(Me) = CNC(=N)NCCC[C@H](N)C(=O)O; Bta = N[C@@H](Cc1csc2ccccc12)C(=O)O; Cha = N[C@@H](CC1CCCCC1)C(=O)O; X3 = NC(=S)[C@H](Cc1ccccc1)N*; X6 = O=C(c1c[nH]c2ccccc12)*; Hexanoyl = CCCCCC(=O)*; azaGly = NNC(=O)O

Key:
[1] = molecular target: T1, hOT7T175 (Homo sapiens, UniProt Q969F8, L364H); assay: hOT7T175 receptor binding activity: binding inhibition of Cy-5-labeled metastin (40-54) on hOT7T175-expressed CHO cells; design: expressed in transfected cells; host or cells: CHO cells
[2] = molecular target: T1, hOT7T175; assay: Intracellular Ca ion level-increasing activity using FLIPR in hOT7T175/CHO; format: cell-based; design: expressed in transfected cells; host or cells: CHO/dhfr- cells, obtained from ATCC; settings: relative, Metastin (1-54) = 1

T1 sequence (Q969F8 whole entry L364H): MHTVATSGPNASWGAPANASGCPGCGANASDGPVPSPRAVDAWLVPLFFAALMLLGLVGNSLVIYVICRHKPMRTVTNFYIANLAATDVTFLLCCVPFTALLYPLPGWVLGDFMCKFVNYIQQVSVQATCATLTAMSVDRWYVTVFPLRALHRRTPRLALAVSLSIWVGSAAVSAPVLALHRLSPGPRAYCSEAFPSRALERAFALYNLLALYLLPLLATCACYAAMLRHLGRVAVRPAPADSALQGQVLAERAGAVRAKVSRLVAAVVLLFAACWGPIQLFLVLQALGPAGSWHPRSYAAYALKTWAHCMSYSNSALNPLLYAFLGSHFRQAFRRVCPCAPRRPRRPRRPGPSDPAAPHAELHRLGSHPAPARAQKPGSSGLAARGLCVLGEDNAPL

Row | Compound | IC50 [1] [nM] | Specific Activity (intracellular Ca ion level-increasing activity) [2]
1 | CNC(=N)NCCC[C@H](NC(=O)[C@H](CC(C)C)NC(=O)NNC(=O)[C@H](Cc1ccccc1)NC(=O)[C@H](CO)NC(=O)[C@H](CC(N)=O)NC(=O)[C@@H](Cc1c[nH]c2ccccc12)NC(=O)[C@H](CC(N)=O)NC(=O)[C@H](N)Cc1ccc(O)cc1)C(=O)N[C@@H](Cc1ccccc1)C(N)=O [Compound No. 236, D-Tyr-Asn-D-Trp-Asn-Ser-Phe-AzaGly-Leu-Arg(Me)-Phe-NH2] | 42 | 2
2 | CCCCCC(=O)N[C@@H](CC(N)=O)C(=O)N[C@@H](CO)C(=O)N[C@@H](Cc1ccccc1)C(=O)NNC(=O)N[C@@H](CC(C)C)C(=O)N[C@@H](CCCNC(=N)NC)C(=O)N[C@@H](Cc1ccccc1)C(N)=O [Compound No. 277, n-Hexanoyl-Asn-Ser-Phe-AzaGly-Leu-Arg(Me)-Phe-NH2] (Hexanoyl-NSF[azaGly]L[Arg(Me)]F-NH2) | 54 | 2
3 | CC(C)C[C@H](NC(=O)CNC(=O)[C@H](Cc1ccccc1)NC(=O)[C@H](CO)NC(=O)[C@H](CC(N)=O)NC(=O)[C@H](Cc1c[nH]c2ccccc12)NC(=O)[C@H](CC(N)=O)NC(=O)[C@@H](N)Cc1ccc(O)cc1)C(=O)N[C@@H](CCCNC(=N)N)C(=O)N[C@@H](Cc1csc2ccccc12)C(N)=O [Compound No. 189] (H-YNWNSFGLR[Bta]-NH2; N-terminus assumed) | 230 | 10
4 | CNC(=N)NCCC[C@H](NC(=O)[C@H](CC(C)C)NC(=O)NNC(=O)[C@H](Cc1ccccc1)NC(=O)[C@H](CO)NC(=O)[C@H](CC(N)=O)NC(=O)[C@H](Cc1c[nH]c2ccccc12)NC(=O)[C@@H](CC(N)=O)NC(=O)[C@H](N)Cc1ccc(O)cc1)C(=O)N[C@@H](Cc1ccccc1)C(N)=O [Compound No. 237, D-Tyr-D-Asn-Trp-Asn-Ser-Phe-AzaGly-Leu-Arg(Me)-Phe-NH2] | 27 | 3
5 | CNC(=N)NCCC[C@H](NC(=O)[C@H](CC(C)C)NC(=O)NNC(=O)[C@H](Cc1ccccc1)NC(=O)[C@H](CO)NC(=O)[C@H](CC(N)=O)NC(=O)CCc1c[nH]c2ccccc12)C(=O)N[C@@H](Cc1ccccc1)C(N)=O [Compound No. 260, 3-(3-Indolyl)propionyl-Asn-Ser-Phe-AzaGly-Leu-Arg(Me)-Phe-NH2] ({Propanoyl(3-indol-3-yl)}-NSF[azaGly]L[Arg(Me)]F-NH2) | 320 | 5
6 | CC(C)C[C@H](NC(=O)CNC(=O)[C@H](Cc1ccccc1)NC(=O)[C@H](CO)NC(=O)[C@H](CC(N)=O)NC(=O)[C@H](Cc1c[nH]c2ccccc12)NC(=O)[C@H](CC(N)=O)NC(=O)[C@H](N)Cc1ccc(O)cc1)C(=O)N[C@@H](CCCNC(=N)N)C(=O)N[C@@H](Cc1ccccc1)C(N)=S [Compound No. 146] (H-[dY]NWNSFGLR-X3) | 370 | 10
7 | CNC(=N)NCCC[C@H](NC(=O)[C@H](CC(C)C)NC(=O)NNC(=O)[C@H](Cc1ccccc1)NC(=O)[C@H](CO)NC(=O)[C@H](CC(N)=O)NC(=O)[C@H](Cc1c[nH]c2ccccc12)NC(C)=O)C(=O)N[C@@H](Cc1ccccc1)C(N)=O [Compound No. 272, Acetyl-Trp-Asn-Ser-Phe-AzaGly-Leu-Arg(Me)-Phe-NH2] (Ac-WNSF[azaGly]L[Arg(Me)]F-NH2) | 540 | 2
8 | CC(C)C[C@H](NC(=O)CNC(=O)[C@H](CC1CCCCC1)NC(=O)[C@H](CO)NC(=O)[C@H](CC(N)=O)NC(=O)[C@H](Cc1c[nH]c2ccccc12)NC(=O)[C@H](CC(N)=O)NC(=O)[C@@H](N)Cc1ccc(O)cc1)C(=O)N[C@@H](CCCNC(=N)N)C(=O)N[C@@H](Cc1ccccc1)C(N)=O [Compound No. 156, Tyr-Asn-Trp-Asn-Ser-Cha-Gly-Leu-Arg-Phe-NH2] (H-YNWNS[Cha]GLRF-NH2) | 49 | 2
9 | CNC(=N)NCCC[C@H](NC(=O)[C@H](CC(C)C)NC(=O)CNC(=O)[C@H](Cc1ccccc1)NC(=O)[C@H](CO)NC(=O)[C@H](CC(N)=O)NC(=O)[C@@H](Cc1c[nH]c2ccccc12)NC(=O)[C@H](CC(N)=O)NC(=O)[C@H](N)Cc1ccc(O)cc1)C(=O)N[C@@H](Cc1ccccc1)C(N)=O [Compound No. 142, D-Tyr-Asn-D-Trp-Asn-Ser-Phe-Gly-Leu-Arg(Me)-Phe-NH2] | 26 | 2
10 | CC(C)C[C@H](NC(=O)CNC(=O)[C@H](Cc1ccccc1)NC(=O)[C@H](CO)NC(=O)[C@H](CC(N)=O)NC(=O)[C@H](Cc1c[nH]c2ccccc12)NC(=O)[C@H](CC(N)=O)NC(=O)[C@@H](N)CC(=O)O)C(=O)N[C@@H](CCCNC(=N)N)C(=O)N[C@@H](Cc1ccccc1)C(N)=O [Compound No. 75] (H-DNWNSFGLRF-NH2) | 880 | 1
11 | CC(C)C[C@H](NC(=O)CNC(=O)[C@H](Cc1ccccc1)NC(=O)[C@H](CO)NC(=O)[C@H](CC(N)=O)NC(=O)[C@H](Cc1c[nH]c2ccccc12)NC(=O)[C@H](CC(N)=O)NC(=O)[C@@H](N)Cc1ccc(O)cc1)C(=O)N[C@@H](CCCNC(=N)N)C(=O)N[C@@H](Cc1ccc(N)cc1)C(N)=O [Compound No. 131] | 120 | 3
12 | CC(C)C[C@H](NC(=O)CNC(=O)[C@H](Cc1ccccc1)NC(=O)[C@H](CO)NC(=O)[C@H](CC(N)=O)NC(=O)[C@H](Cc1c[nH]c2ccccc12)NC(=O)[C@H](CC(N)=O)NC(=O)[C@@H](N)Cc1ccc(O)cc1)C(=O)N[C@@H](CCCNC(=N)N)C(=O)N[C@@H](Cc1ccc(Cl)cc1)C(N)=O [Compound No. 130] | 42 | 10
13 | CC(C)C[C@H](NC(=O)CNC(=O)[C@H](Cc1ccccc1)NC(=O)[C@H](CO)NC(=O)[C@H](CC(N)=O)NC(=O)[C@H](Cc1c[nH]c2ccccc12)NC(=O)[C@H](CC(N)=O)NC(=O)[C@H](Cc1ccc(O)cc1)NC(=O)[C@H](CC(N)=O)NC(=O)[C@@H]1CCCN1C(=O)[C@@H](N)CC(C)C)C(=O)N[C@@H](CCCNC(=N)N)C(=O)N[C@@H](Cc1ccccc1)C(N)=O [Compound No. 32, reference compound] | 25 | 10
14 | CC(C)C[C@H](NC(=O)CNC(=O)[C@H](Cc1ccccc1)NC(=O)[C@H](CO)NC(=O)[C@H](CC(N)=O)NC(=O)[C@H](Cc1c[nH]c2ccccc12)NC(=O)[C@H](CC(N)=O)NC(=O)[C@@H](N)Cc1ccc(O)cc1)C(=O)N[C@@H](CCCNC(=N)N)C(=O)N[C@@H](Cc1cccc(C(F)(F)F)c1)C(N)=O [Compound No. 200] | 340 | 10
15 | CC(C)C[C@H](NC(=O)CNC(=O)[C@H](Cc1ccccc1)NC(=O)[C@H](CO)NC(=O)[C@H](CC(N)=O)NC(=O)[C@H](Cc1c[nH]c2ccccc12)NC(=O)[C@H](CC(N)=O)NC(=O)[C@@H](N)Cc1ccc(O)cc1)C(=O)N[C@@H](CCCNC(=N)N)C(=O)N[C@@H](Cc1ccc(O)cc1)C(N)=O [Compound No. 109] (H-YNWNSFGLRY-NH2) | 23 | 20
16 | CNC(=N)NCCC[C@H](NC(=O)[C@H](CC(C)C)NC(=O)NNC(=O)[C@H](Cc1ccccc1)NC(=O)[C@H](CO)NC(=O)[C@H](CC(N)=O)NC(=O)C(c1ccccc1)c1ccccc1)C(=O)N[C@@H](Cc1ccccc1)C(N)=O [Compound No. 268, Diphenylacetyl-Asn-Ser-Phe-AzaGly-Leu-Arg(Me)-Phe-NH2] (Diphenylacetyl-NSF[azaGly]L[Arg(Me)]F-NH2) | 550 | 1
17 | CNC(=N)NCCC[C@H](NC(=O)[C@H](CC(C)C)NC(=O)CNC(=O)[C@H](Cc1ccccc1)NC(=O)[C@H](CO)NC(=O)[C@H](CC(N)=O)NC(=O)[C@H](CC1CCCCC1)NC(=O)[C@H](CC(N)=O)NC(=O)[C@H](N)Cc1ccc(O)cc1)C(=O)N[C@@H](Cc1ccccc1)C(N)=O [Compound No. 171, D-Tyr-Asn-Cha-Asn-Ser-Phe-Gly-Leu-Arg(Me)-Phe-NH2] (H-[dY]N[Cha]NSFGL[Arg(Me)]F-NH2) | 110 | 10
18 | CCCC[C@H](NC(=O)CNC(=O)[C@H](Cc1ccccc1)NC(=O)[C@H](CO)NC(=O)[C@H](CC(N)=O)NC(=O)[C@H](Cc1c[nH]c2ccccc12)NC(=O)[C@H](CC(N)=O)NC(=O)[C@@H](N)Cc1ccc(O)cc1)C(=O)N[C@@H](CCCNC(=N)N)C(=O)N[C@@H](Cc1ccccc1)C(N)=O [Compound No. 105, Tyr-Asn-Trp-Asn-Ser-Phe-Gly-Nle-Arg-Phe-NH2] | 880 | 1
19 | CNC(=N)NCCC[C@H](NC(=O)[C@H](CC(C)C)NC(=O)NNC(=O)[C@H](Cc1ccccc1)NC(=O)[C@H](CO)NC(=O)[C@H](CC(N)=O)NC(=O)[C@H](Cc1ccc2ccccc2n1)NC(=O)[C@H](CC(N)=O)NC(=O)[C@H](N)Cc1ccc(O)cc1)C(=O)N[C@@H](Cc1ccccc1)C(N)=O [Compound No. 301, D-Tyr-Asn-Ala(2-Qui)-Asn-Ser-Phe-AzaGly-Leu-Arg(Me)-Phe-NH2] (H-[dY]N[X1]NSF[azaGly]L[Arg(Me)]F-NH2) | 15 | 1
20 | CNC(=N)NCCC[C@H](NC(=O)[C@H](CC(C)C)NC(=O)NNC(=O)[C@H](Cc1ccccc1)NC(=O)[C@H](CO)NC(=O)[C@H](CC(N)=O)NC(=O)c1c[nH]c2ccccc12)C(=O)N[C@@H](Cc1ccccc1)C(N)=O [Compound No. 265, Indole-3-carbonyl-Asn-Ser-Phe-AzaGly-Leu-Arg(Me)-Phe-NH2] (X6-NSF[azaGly]L[Arg(Me)]F-NH2) | 95 | 3
